Measured values published in patent publication US6162809A, “Pyridylthio compounds for controlling helicobacter bacteria” (Byk Gulden Lomberg Chemische Fabrik GmbH, priority 1994, dated 2000).
Where a name gives a salt, the structure may show the parent alone.

system: Helicobacter pylori; assay: activity against Helicobacter pylori (Columbia agar, growth period of 4 days); type: cell-based; settings: Columbia agar (Oxoid), approximate values

Molecule | Approx. MIC 50
4-[3-(4-Phenyl-1-piperazinyl)propylthio]-2-[(4-pyridinylthio)methyl]pyridine [Compound 16] | ≤ 0,5 μg/ml

same assay, conditions: Helicobacter pylori, 96 h, Columbia agar (Oxoid), approximate values, read-out: Approx. MIC 50

Molecule | MIC50 [µg/mL]
Cc1c(SCCCSc2ccncc2)ccnc1CSc1ccccn1 [Compound 6] | ≤ 0.5
Cc1c(SCCCSCCn2c([N+](=O)[O-])cnc2C)ccnc1CSc1ccncc1 [Compound 29, 4-[[7-(2-Methyl-5-nitroimidazol-1-yl)-1,5-dithiahept-1-yl]-3-methyl]-2-[(4-pyridinylthio)methyl]-pyridine dihydrochloride] | ≤ 0.5
Cc1c(SCCCSC(=S)N(C)C)ccnc1CSc1ccncc1 [Compound 15, 4-[(3-Dimethyldithiocarbamoyl)propylthio]-3-methyl-2-[(4-pyridinylthio)methyl]pyridine] | ≤ 0.5
Cc1ncsc1CCSc1ccnc(CSc2ccccn2)c1C [Compound 3, 3-Methyl-4-[2-(4-methyl-5-thiazolyl)ethylthio]2-[(2-pyridinylthio)methyl]pyridine] | ≤ 0.5
Cc1c(SCc2ccco2)ccnc1CSc1ccncc1 [Compound 11, 4-(2-Furylmethylthio)-3-methyl-2-[(4-pyridinylthio)methyl]pyridine] | ≤ 0.5
Cc1c(SCCCn2c([N+](=O)[O-])cnc2C)ccnc1CSc1ncccn1 [Compound 32, 3-Methyl-4-[3-(2-methyl-5-nitroimidazol-1-yl)propylthio]-2-[(2-pyrimidinylthio)methyl]pyridine] | ≤ 0.5
Cc1c(SCCCSc2ccncc2)ccnc1CSc1ccncc1 [Compound 14, 3-Methyl-2-[(4-pyridinylthio)methyl]-4-[5-(4-pyridinyl)-1,5-dithiapentyl]pyridine] | ≤ 0.5
